{
  "source": "patent US20170144987A1",
  "about": "“NOVEL CRYSTALLINE POLYMORPHS OF PYRIDINE DERIVATIVE AND METHOD FOR PRODUCING THE SAME” (TEIJIN PHARMA LIMITED, priority 2014, published 2017)",
  "key": {"[1]": {"target": "T1, human URAT1 (Homo sapiens, UniProt Q96S37)", "T1 construct": "Full-length cDNA of human URAT1 (hURAT1)", "T1 sequence (Q96S37 1-553)": "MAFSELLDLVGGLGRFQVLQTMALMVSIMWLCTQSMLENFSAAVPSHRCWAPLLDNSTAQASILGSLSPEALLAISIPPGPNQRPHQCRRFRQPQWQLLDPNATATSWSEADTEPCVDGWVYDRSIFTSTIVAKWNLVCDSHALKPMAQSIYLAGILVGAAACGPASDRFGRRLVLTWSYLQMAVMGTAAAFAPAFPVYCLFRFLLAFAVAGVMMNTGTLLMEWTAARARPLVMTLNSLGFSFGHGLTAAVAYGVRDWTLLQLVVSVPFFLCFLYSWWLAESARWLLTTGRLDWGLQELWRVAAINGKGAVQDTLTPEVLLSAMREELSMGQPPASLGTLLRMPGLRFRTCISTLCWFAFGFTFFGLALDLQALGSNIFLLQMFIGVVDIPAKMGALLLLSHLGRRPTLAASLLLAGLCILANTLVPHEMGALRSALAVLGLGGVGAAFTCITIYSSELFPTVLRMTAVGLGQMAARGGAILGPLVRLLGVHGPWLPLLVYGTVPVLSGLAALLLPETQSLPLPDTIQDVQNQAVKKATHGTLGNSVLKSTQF", "experiment": "Test for inhibition of uric acid transport using human URAT1-expressing cells", "type": "cell-based", "details": "HEK 293 cells expressing human URAT1; 14C-labeled uric acid 25 μM; uptake 37° C. for 5 min; read-out: IC50 (concentration of the compound at which the uric acid transport rate is inhibited by 50%)", "method": "Test for Inhibition of Uric Acid Transport Using Human URAT1-Expressing Cells\n2-(5-chloropyridin-3-yl)-1-(2,5-dichlorobenzyl)-4-methyl-1H-imidazole-5-carboxylic acid was dissolved in DMSO (produced by Sigma) to a concentration of 20 mM and the concentration was subsequently adjusted to a value desired for use. Full-length cDNA of human URAT1 (hURAT1) (produced by OriGene Technologies, Inc., NCBI Reference Sequence: NM 144585) was subcloned into an expression vector, pCMV6-Kan/Neo (produced by OriGene Technologies, Inc.), and hURAT1 gene was transfected into human embryonic kidney-derived cells (HEK 293 cells) by liposome method using Lipofectamine 2000 (produced by Invitrogen Corporation), whereupon HEK 293 cells expressing human URAT1 gene were selected on the basis of Geneticin resistance. […]\nAfter the medium was removed by aspiration from each well, the medium was replaced with a solution obtained by substituting NaCl in Hank's Balanced Salt Solution (HBSS) with Na gluconate (hereinafter, HBSS/Na-gluconate) and the cells were preincubated at 37° C. for about 10 minutes. […] The cell sample and a liquid scintillation liquid, ULTIMA GOLD (produced by PerkinElmer, Inc.) were mixed and the radioactivity was measured by a liquid scintillation counter (Beckman Coulter, Inc.). […]"}, "[2]": {"tested_on": "Cebus apella", "experiment": "Drug efficacy evaluation test for Cebus apella (uric acid excretion rate)", "type": "in vivo", "details": "3 mg/kg to 30 mg/kg in 0.5% methylcellulose, administered from the nasal cavity to the stomach, samples up to 24 hours", "method": "Drug Efficacy Evaluation Test for Cebus Apella 2-(5-chloropyridin-3-yl)-1-(2,5-dichlorobenzyl)-4-methyl-1H-imidazole-5-carboxylic acid (3 mg/kg to 30 mg/kg) dispersed in a 0.5% methylcellulose solution was administered to Cebus apella from the nasal cavity to the stomach using a disposable catheter and a syringe barrel. Blood samples were taken before administration and 30 minutes, 1 hour, 2 hours, 4 hours, 8 hours, 12 hours, and 24 hours after administration; and urine samples were collected for the time intervals of immediately after to 4 hours after administration, from 4 hours to 8 hours after administration, from 8 hours to 16 hours after administration, and from 16 hours to 24 hours after administration. Concentrations of uric acid and creatinine in the blood and urine samples collected were measured by an automatic analyzer (JEOL Ltd.). Uric acid and […] were measured using L-type Wako UA•F (Wako Pure Chemicals Industries, Ltd.) and L-type Creatine F (Wako Pure Chemicals Industries, Ltd.), respectively. Uric acid clearance was calculated from the uric acid concentrations in blood and urine and, similarly, creatinine clearance was calculated from the creatinine concentrations."}},
  "data": [
    {"compound": "Cc1nc(-c2cncc(Cl)c2)n(Cc2cc(Cl)ccc2Cl)c1C(=O)O", "note": "[2-(5-chloropyridin-3-yl)-1-(2,5-dichlorobenzyl)-4-methyl-1H-imidazole-5-carboxylic acid]", "values": [
      {"measurement": "IC50", "setting": "[1]", "result": "≤ 200", "unit": "nM"},
      {"measurement": "activity to promote uric acid excretion (uric acid excretion rate)", "setting": "[2]", "result": "excellent activity to promote uric acid excretion"}
    ]}
  ]
}
